These are literature values, as cited in patent US20170056463A1, “COMPOSITIONS AND METHODS FOR TREATING DIABETES” (priority 2015, published 2017).

In series [1] the test system is phosphotyrosine phosphatase.
The test system of series [2] is HSV (herpes simplex virus).
Experiment in series [3]: not given
This is another data set of the same source.

Regarding `[Cr]` [Chromium, chromium], the phosphotyrosine phosphatase activity result in series [1] was “inhibit”.
As for `COc1ccc2cc3[n+](cc2c1OC)CCc1cc2c(cc1-3)OCO2` [berberine], where the note is “after oral supplementation with the herbal extract of berberine, patients with pre-diabetes and diabetes”, the “levels of fasting blood sugar” value is “normalize”. In addition, the “lowering of blood glucose” value (doses of about 1,000 mg daily, compared with metformin) was “as effectively as metformin”. Further, where the note is “previous investigations”, the cholesterol ratios result is given as “improved” and the “hemoglobin A1c (HbA1c)” value was “significant reduction”. In addition, the “growth of HSV” value in series [2] is “inhibits growth”.
Regarding `[Zn]` [zinc], the blood glucose levels result in series [3] (2 hour post-prandial measurements in people treated with zinc) is recorded as “reduced”. Moreover, the “systolic and diastolic blood pressures” value in series [3] (after zinc supplementation) is “significant reduction”.
